# Results reported in patent US8512694B2, “Method of producing rough strains of bacteria and uses thereof” (priority 2005, dated 2013).
# “Also recorded” adds a separate entry of the source.
# System: Mycobacterium obuense type strain ATCC 27023
# Assay: Growth of Mycobacterium obuense on Middlebrook 7H11 medium with different Dapsone concentrations
# Protocol: Mycobacterium obuense type strain ATCC 27023 was grown Middlebrook 7H11 medium comprising different concentrations of Dapsone™.
structure (smiles),measurement,setting,value
"Nc1ccc(S(=O)(=O)c2ccc(N)cc2)cc1 [Dapsone ™, 4,4′-Diaminodiphenyl sulfone]",Observed growth,"Experiment 2 part a, 5 μg Dapsone/ml Middlebrook 7H11 medium",3 smooth colonies
same,Observed growth,"Experiment 2 part a, 10 μg Dapsone/ml Middlebrook 7H11 medium",no growth
same,Observed growth,"Experiment 2 part a, 20 μg Dapsone/ml Middlebrook 7H11 medium",no growth
same,Observed growth,"Experiment 2 part a, 40 μg Dapsone/ml Middlebrook 7H11 medium",no growth
same,Observed growth,"Experiment 2 part a, 50 μg Dapsone/ml Middlebrook 7H11 medium",no growth
same,Observed growth,"Experiment 2 part b, 3 μg Dapsone/ml Middlebrook 7H11 medium",confluent smooth colonies
same,Observed growth,"Experiment 2 part b, 4 μg Dapsone/ml Middlebrook 7H11 medium",small smooth colonies
same,Observed growth,"Experiment 2 part b, 5 μg Dapsone/ml Middlebrook 7H11 medium",small smooth colonies
same,Observed growth,"Experiment 2 part c, 5 μg Dapsone/ml Middlebrook 7H11 medium","few rough colonies,; also recorded: mostly smooth colonies"
same,Observed growth,"Experiment 2 part c, 7.5 μg Dapsone/ml Middlebrook 7H11 medium","few rough colonies,; also recorded: mostly smooth colonies"
same,Observed growth,"Experiment 2 part c, 10 μg Dapsone/ml Middlebrook 7H11 medium",mostly rough colonies
same,Observed growth,"Experiment 2 part c, 12 μg Dapsone/ml Middlebrook 7H11 medium",mostly rough colonies
